Laboratory results: patent US9284283B2, “Macrocyclic compounds for modulating IL-17” (ENSEMBLE THERAPEUTICS CORPORATION, priority 2012, dated 2016)

How the values were obtained:
[1] = biological target: T1, recombinant human IL17a (binding to its receptor IL17R) (Homo sapiens, UniProt Q16552); assay: IL-17 competition ELISA I (IL17a coated, IL17R/Fc binding)
T1 construct: purchased R&D Systems 317-ILB (IL17a); 177-IR (IL17R/Fc)
T1 sequence (Q16552 20-155 limits assumed): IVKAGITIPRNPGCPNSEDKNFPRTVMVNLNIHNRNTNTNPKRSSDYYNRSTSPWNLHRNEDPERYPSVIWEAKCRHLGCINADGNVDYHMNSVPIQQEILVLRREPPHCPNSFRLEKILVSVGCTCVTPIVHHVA
Procedure, shortened: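 Plates coated with 20 nM recombinant human IL17a received compound dilutions and 12 nM IL17R/Fc (final) for 30 min at room temperature. Bound receptor was detected with HRP anti-human Fc and TMB, read at 450 nm. IC50 came from a 4-parameter logistic fit between no-competitor and blank controls.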

[2] = biological target: T2, biotinylated human IL-17 (binding to IL17R/Fc) (Homo sapiens, UniProt Q16552); assay: IL-17 competition ELISA II (captured IL17R/Fc, biotinylated IL-17)
T2 construct: purchased R&D Systems 317-ILB (IL-17, biotinylated); 177-IR (IL17R/Fc)
T2 sequence (Q16552 20-155 limits assumed): T1 sequence (Q16552 20-155 limits assumed)
Procedure, shortened: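 Anti-human IgG-coated plates captured IL17R/Fc (10 nM), then compound (5-fold dilutions from 1 μM) and biotinylated human IL-17 (20 nM stock) were added for 30 min at room temperature in PBST. Bound IL-17 detected by streptavidin-HRP/TMB at 450 nm. IC50 from 4-parameter logistic fit between no-competitor and blank controls.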

[3] = test system: IL-17A induced secretion of IL-6 in primary human RASF cells; assay: Inhibition of IL17A induced secretion of IL6 in human rheumatoid arthritis synovial fibroblast (RASF) cells; type: cell-based; details: Homo sapiens, Fibroblast
Procedure, shortened: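 Primary RASF cells (passage 2-8) stimulated 20 h at 37 °C with rhIL-17A (30 ng/mL) pre-incubated 1 h with compound (final 0.03-25 μM, 0.25% DMSO). Supernatant IL-6 measured by ELISA, normalized to WST1 viability; triplicates.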

Compound | IC50 [1] [nM] | IC50 [2] [nM] | IC50 [3] [nM]
C[C@H]1NC(=O)[C@@H](Cc2ccc(NC(=O)[C@H](Cc3ccccc3Cl)NC(=O)c3cccnc3)cc2)NC(=O)CC2(CCCC2)CC(=O)NCCCCCNC1=O [Compound 353] | 100 to 1000 | < 100 | 1000 to 10000
CC1(C)CC(=O)NCCCCCNC(=O)CNC(=O)[C@@H](Cc2ccc(NC(=O)[C@@H](NC(=O)Cc3ccccc3)C3CCCCC3)cc2)NC(=O)C1 [Compound 251] | 100 to 1000 |  | 1000 to 10000
NC(=O)CC[C@H]1NC(=O)[C@@H](Cc2ccc(NC(=O)[C@H](Cc3ccccc3Cl)NC(=O)Cc3ccccc3)cc2)NC(=O)CC2(CCCC2)CC(=O)NCCCCCNC1=O [Compound 341] | < 100 | < 100 | < 100
C[C@H]1NC(=O)[C@@H](Cc2ccc(NC(=O)[C@@H](NC(=O)Cc3ccccc3)C3CCCCC3)cc2)NC(=O)CC2(CCCC2)CC(=O)N[C@H](C(=O)O)CCCCNC1=O [Compound 369] | < 100 | < 100 | < 100
O=C1CNC(=O)[C@@H](Cc2ccc(NC(=O)[C@@H](NC(=O)Cc3ccccc3)C3CCCCC3)cc2)NC(=O)CC2(CCCC2)CC(=O)N[C@H](C(=O)O)CCCCN1 [Compound 316] | < 100 | < 100 | 100 to 1000
C[C@H]1NC(=O)[C@@H](Cc2ccc(NC(=O)[C@H](Cc3ccccc3Cl)NC(=O)c3cccnc3)cc2)NC(=O)CC2(CCCC2)CC(=O)N[C@H](C(=O)O)CCCCNC1=O [Compound 368] | 100 to 1000 | < 100 | 100 to 1000
CC1(C)CC(=O)NCCCCCNC(=O)CNC(=O)[C@@H](Cc2ccc(NC(=O)[C@@H](NC(=O)Cc3ccc(O)cc3)C3CCCCC3)cc2)NC(=O)C1 [Compound 253] | 100 to 1000 |  | 1000 to 10000
O=C1CNC(=O)[C@@H](Cc2ccc(NC(=O)[C@@H](NC(=O)Cc3cccc(O)c3)C3CCCCC3)cc2)NC(=O)CC2(CCCC2)CC(=O)NCCCCCN1 [Compound 378] | 100 to 1000 | < 100 | 100 to 1000
O=C1CC2(CCCC2)CC(=O)N[C@H](Cc2ccc(NC(=O)[C@H](Cc3ccccc3Cl)NC(=O)Cc3ccccc3)cc2)C(=O)N[C@H](Cc2ccccc2)C(=O)NCCCCCN1 [Compound 261] | < 100 |  | 1000 to 10000
O=C1CC2(CCCC2)CC(=O)N[C@H](Cc2ccc(NC(=O)[C@H](Cc3ccccc3Cl)NC(=O)Cc3ccccc3)cc2)C(=O)NCC(=O)N[C@H](C(=O)O)CCCCN1 [Compound 339] | < 100 | < 100 | 100 to 1000
O=C1CC2(CCCC2)CC(=O)N[C@H](Cc2ccc(NC(=O)[C@@H](NC(=O)Cc3ccc(CO)cc3)C3CCCCC3)cc2)C(=O)N[C@H](Cc2ccccc2)C(=O)NCCCCCN1 [Compound 336] | 100 to 1000 | < 100 | 100 to 1000
O=C1CNC(=O)[C@@H](Cc2ccc(NC(=O)[C@H](CC3CCCCC3)NC(=O)Cc3ccccc3)cc2)NC(=O)CC2(CCCC2)CC(=O)NCCCCCN1 [Compound 293] | 100 to 1000 | < 100 | 1000 to 10000
O=C1CNC(=O)[C@@H](Cc2ccc(NC(=O)[C@H](Cc3ccccc3Cl)NC(=O)Cc3ccccc3)cc2)NC(=O)CC2(CCCC2)CC(=O)NCCNCCN1 [Compound 338] | 100 to 1000 | < 100 | > 10000
CC(=O)N[C@@H](Cc1ccccc1Cl)C(=O)Nc1ccc(C[C@H]2NC(=O)CC3(CCCC3)CC(=O)N[C@H](C(=O)O)CCCCNC(=O)CNC2=O)cc1 [Compound 264] | < 100 | < 100 | 100 to 1000
C[C@H]1NC(=O)[C@@H](Cc2ccc(NC(=O)[C@@H](NC(=O)Cc3ccccc3)C3CCCCC3)cc2)NC(=O)CC2(CCCC2)CC(=O)NCCCCCNC1=O [Compound 342] | 100 to 1000 | < 100 | 100 to 1000
O=C1CC2(CCCC2)CC(=O)N[C@H](Cc2ccc(NC(=O)[C@H](Cc3ccccc3Cl)NC(=O)Cc3ccc(O)cc3)cc2)C(=O)NCCCCCCCCN1 [Compound 263] | < 100 |  | 1000 to 10000

Compound | IC50 [1] [nM] | IC50 [2] [nM] | IC50 [3] [nM]
C[C@H]1NC(=O)[C@@H](Cc2ccc(NC(=O)[C@H](Cc3ccccc3Cl)NC(=O)Cc3ccccc3)cc2)NC(=O)CC2(CCCC2)CC(=O)N[C@H](C(=O)O)CCCCNC1=O [Compound 367] | < 100 | < 100 | < 100
CN1CCCCCNC(=O)CNC(=O)[C@@H](Cc2ccc(NC(=O)[C@@H](NC(=O)Cc3ccccc3)C3CCCCC3)cc2)NC(=O)CC2(CCCC2)CC1=O [Compound 332] | 100 to 1000 | < 100 | 1000 to 10000
C[C@H]1NC(=O)[C@@H](Cc2ccc(NC(=O)[C@H](Cc3ccccc3Cl)NC(=O)Cc3ccccc3)cc2)NC(=O)CC2(CCCC2)CC(=O)NCCCCCNC1=O [Compound 288] | < 100 | < 100 | < 100
O=C1CNC(=O)[C@@H](Cc2ccc(NC(=O)[C@H](Cc3ccccc3Cl)NC(=O)NCc3ccccc3)cc2)NC(=O)CC2(CCCC2)CC(=O)NCCCCCN1 [Compound 302] | < 100 | < 100 | 100 to 1000
C[C@H]1NC(=O)[C@@H](Cc2ccc(NC(=O)[C@@H](NC(=O)c3cccnc3)C3CCCCC3)cc2)NC(=O)CC2(CCCC2)CC(=O)NCCCCCNC1=O [Compound 361] | 100 to 1000 | < 100 | 1000 to 10000
O=C1CNC(=O)[C@@H](Cc2ccc(NC(=O)[C@H](Cc3ccccc3Cl)NC(=O)CC3CCCCC3)cc2)NC(=O)CC2(CCCC2)CC(=O)NCCCCCN1 [Compound 236] | < 100 |  | 1000 to 10000
CNC(=O)N[C@@H](Cc1ccccc1Cl)C(=O)Nc1ccc(C[C@H]2NC(=O)CC3(CCCC3)CC(=O)NCCCCCNC(=O)CNC2=O)cc1 [Compound 273] | 100 to 1000 | < 100 | 1000 to 10000
COC(=O)[C@@H]1CCCCNC(=O)CNC(=O)[C@@H](Cc2ccc(NC(=O)[C@@H](NC(=O)c3cccnc3)C3CCCCC3)cc2)NC(=O)CC2(CCCC2)CC(=O)N1 [Compound 352] | 1000 to 10000 |  | > 10000
CN(C)C(=O)N[C@@H](Cc1ccccc1Cl)C(=O)Nc1ccc(C[C@H]2NC(=O)CC3(CCCC3)CC(=O)NCCCCCNC(=O)CNC2=O)cc1 [Compound 274] | < 100 | < 100 | 100 to 1000
O=C1CNC(=O)[C@@H](Cc2ccc(NC(=O)[C@H](Cc3ccccc3Cl)NC(=O)Cc3ccc(CO)cc3)cc2)NC(=O)CC2(CCCC2)CC(=O)NCCCCCN1 [Compound 218] | < 100 | < 100 | < 100
CC1(C)CC(=O)NCCCCCNC(=O)CNC(=O)[C@@H](Cc2ccc(NC(=O)[C@@H](NC(=O)c3cccnc3)C3CCCCC3)cc2)NC(=O)C1 [Compound 254] | 1000 to 10000 |  | > 10000
O=C1CNC(=O)[C@@H](Cc2ccc(NC(=O)[C@H](Cc3ccccc3Cl)NC(=O)Cc3ccc(F)cc3)cc2)NC(=O)CC2(CCCC2)CC(=O)NCCCCCN1 [Compound 305] | < 100 | < 100 | 100 to 1000
O=C1CNC(=O)[C@@H](Cc2ccc(NC(=O)[C@H](CC3CCC3)NC(=O)Cc3ccccc3)cc2)NC(=O)CC2(CCCC2)CC(=O)NCCCCCN1 [Compound 246] | < 100 | < 100 | > 10000
CN1CCNC(=O)CNC(=O)[C@@H](Cc2ccc(NC(=O)[C@H](Cc3ccccc3Cl)NC(=O)Cc3ccc(O)cc3)cc2)NC(=O)CC2(CCCC2)CC(=O)NCC1 [Compound 260] | < 100 |  | 1000 to 10000
O=C1CNC(=O)[C@@H](Cc2ccc(NC(=O)[C@H](Cc3ccccc3Cl)NC(=O)c3cccnc3)cc2)NC(=O)CC2(CCCC2)CC(=O)N[C@H](C(=O)O)CCCCN1 [Compound 266] | < 100 | < 100 | 100 to 1000
O=C1CC2(CCCC2)CC(=O)N[C@H](Cc2ccc(NC(=O)[C@H](Cc3ccccc3Cl)NC(=O)Cc3ccccc3)cc2)C(=O)N[C@H](CO)C(=O)NCCCCCN1 [Compound 340] | < 100 | < 100 | 100 to 1000
